Experimental data taken from article PMC10720437, “Non-therapeutic plasma levels in individuals utilizing curcumin supplements in daily life” (Frontiers in Nutrition, 2023).
Values joined by “and” are separate entries in the source; they are usually repeats but may differ in a detail not shown here. Identical values can stand only once. Each block holds one molecule with its values, some of them ahead of it.

Tests used:
[1] = Plasma levels of curcumin, metabolites and piperine by HPLC-MS/MS in participants using their own curcumin formulations; type: in vivo, human
Description: This study is an observational, open-label study investigating the plasma concentration of curcumin as used in daily life. Each participant was instructed to bring their own curcumin formulation on the day of visit. Participants were asked not to take their curcumin formulation in the morning on the day of visit. Blood was taken just before intake of the curcumin supplement (trough concentration) and 1.5 h after intake (expected peak concentration). Any food or beverage intake between these time points was registered while participants were not allowed to take any additional curcumin in between these two time points.
Blood was collected in heparinized tubes and protected against light by wrapping in aluminum foil directly after sampling. All samples were centrifuged (Rotina 380R from Hettich) for 10 min at 2754 RCF and 20°C and the obtained plasma was immediately stored, protected from light, at –80°C until analysis.
To determine the active plasma concentrations of curcumin, demethoxycurcumin, bisdemethoxycurcumin, and tetrahydrocurcumin it is important to highlight the difference between conjugated and unconjugated forms of these different compounds. A way to show this difference is to pretreat each sample with and without β-glucoronidase. In short, we used β-glucoronidase from Sigma-Aldrich (St. Louis, MO, USA), which contained ≥300,000 U/g β-glucoronidase and ≥10,000 U/g sulfatase, which hydrolyzes the hydrophilic glucuronic and sulfate acid group from conjugated curcumin (Figure 1) ([19]). The optimal pH for β-glucoronidase activity is 5.0 ([20]). Although our final mixture of sample plus β-glucoronidase solution has a slightly higher pH, we confirmed that after 1 h incubation at 37°C and 850 repetition per minute (rpm), a plateau was reached. No further conversion of conjugated curcumin into deconjugated curcumin occurred, indicating a complete reaction. Therefore, adding β-glucoronidase/sulfatase mixture results in an increase of unconjugated curcumin, demethoxycurcumin, bisdemethoxycurcumin, and tetrahydrocurcumin by displaying the sum of ‘previous’ conjugated and unconjugated curcuminoids and tetrahydrocurcumin.
Plasma samples were analyzed by our validated HPLC-MS/MS method ([21]). In short, on the day of analysis, samples were thawed and pretreated with and without β-glucoronidase. The samples treated with β-glucoronidase were incubated with 20 U/μL β-glucuronidase at 37°C and 850 revolutions per minute (RPM) for 1 h. Liquid–liquid extraction with Tert Butyl Methyl Ether (TBME) as organic phase was used to extract the compounds from the plasma. Curcumin, demethoxycurcumin, bisdemethoxycurcumin, tetrahydrocurcumin and piperine were quantified in a single analytical run. The HPLC-MS/MS system consisted of an Ultimate 3000 autosampler and pump, both of Dionex, connected to a degasser from LC Packings. The autosampler, with a 100 μL sample loop, was coupled to a Sciex API4000 mass spectrometer. After injection of 50 μL sample, separation of the analytes was performed with an Agilent column 2.1 × 100 mm packed with material of Zorbax Extend 3.5 μm C-18. The flowrate was […] and the dual gradient mobile phase consisted of A: ultra-purified H2O with 0.1% formic acid and B: MeOH 100%. The applied gradient profile started at 50:50 A:B and increased linear to 95% B in 3.0 min. During 6 min a 5:95 A:B level is continued, after which it returned in 0.2 min to 50:50. Afterwards the system was equilibrated during 6 min at the starting level. Throughout the liquid–liquid extraction and HPLC-MS/MS the potential influence of light was minimized by working in an dark environment with aluminum foil as much as possible. Each analytical run included a set of freshly prepared calibration samples containing all compounds in the validated range of 2 nM to 400 nM.

[2] = system: CYP3A; design: method as in PMID 18480186; conditions: cited from earlier work
[3] = design: method as in PMID 9278892; conditions: human blood incubated for 8 h at 37°C; cited from earlier work
[4] = design: method as in PMID 16545122; conditions: oral dosages of up to 12 gram; cited from earlier work
[5] = cited from earlier work
[6] = system: mouse model for pancreatic cancer; design: method as in PMID 19528445; conditions: cited from earlier work
[7] = design: method as in PMID 9619120; conditions: addition of 20 mg/kg piperine; rats; cited from earlier work
[8] = human, in vivo, Mean concentration
[9] = human, in vivo, Plasma level in individual participants
[10] = with addition of β-glucuronidase, 0 h (trough), human plasma
[11] = with addition of β-glucuronidase, 1.5 h (expected peak), human plasma
[12] = without addition of β-glucuronidase, 0 h (trough), human plasma

Molecule: O=C(/C=C/C=C/c1ccc2c(c1)OCO2)N1CCCCC1 [Piperine, piperine]
Fold lower than piperine plasma concentrations in literature that affect curcumin bioavailability ([1]; human, in vivo): 10-60 fold
Trough and peak level concentrations ([1]; human, in vivo): 1.0 to 1096 ng/mL
Detectability in plasma ([1]; in vivo): detectable in all participants
IC50 [2]: 5.5 ± 0.7 µM

Molecule: O=C(/C=C/c1ccc(O)cc1)CC(=O)/C=C/c1ccc(O)cc1 [Bisdemethoxycurcumin, bisdemethoxycurcumin]
Plasma concentrations ([1]; human, in vivo): 1.0 to 18.6 ng/mL
Plasma level in individual participants ([1]; human, in vivo): 2.1 ng/mL
Concentration range ([1]; human, in vivo, 0 h): 0.7 to 2.7 ng/mL
Mean concentration ([1]; human, in vivo, 0 h): 1.6 ng/mL
Concentration range ([1]; human, in vivo, 1.5 h): 0.7 to 60.4 ng/mL
Mean concentration ([1]; human, in vivo, 1.5 h): 6.1 ng/mL
concentration at 0 h [1, 8]: 2.1 ng/mL
concentration at 1.5 h [1, 9]: < 0.62 ng/mL

Molecule: curcumin
Fold below a plasma concentration expected to have a beneficial health effect ([1]; curcumin plasma level after adding β-glucuronidase (25.4 ng/mL)): 1000 fold
Cmax ([1]; one of three participants using curcumin lipid formulations, dosage 800 mg): 355 nM
Fold lower than the concentrations assessed in vitro ([1]; unconjugated free curcumin in plasma): > 1000 fold
Detectable levels in # persons [1, 10]: 27
Mean concentration [1, 10]: 14.3 ng/mL
Detectable levels in # persons [1, 11]: 42
Mean concentration [1, 11]: 25.4 ng/mL
Participants in whom curcumin after hydrolysis could not be detected (below LLOQ) ([1]; with β-glucuronidase, 1.5 h after dosing): 5
Detectable levels in # persons [1, 12]: 1
Mean concentration [1, 12]: 10.1 ng/mL
Mean concentration ([1]; without addition of β-glucuronidase, 1.5 h (expected peak), human plasma): 1.0 ng/mL
Detectable levels in # persons ([1]; without addition of β-glucuronidase, 1.5 h after intake (expected peak), human plasma): 2
Plasma level in individual participants ([1]; without β-glucuronidase, expected peak level, 1.5 h after intake): 0.9 ng/mL and 1.1 ng/mL
Plasma level in individual participants ([1]; without β-glucuronidase, trough level): 10.1 ng/mL
Decrease of chemical t1/2 [3]: 50%
Levels of curcumin in the systemic circulation [4]: no detectable levels
Curcumin concentrations ([5]; oral lipid formulations, β-glucuronidase added prior to analysis): up to 1189.1 ± 518.8 ng/mL
Claimed plasma concentration relative to the concentration of unconjugated curcumin ([5]; β-glucuronidase added to plasma prior to analysis): up to 185 x
Tumor growth [6]: reduced the tumor growth
Increase of bioavailability of curcumin [7]: 154%

More lines, now with the values ahead:

Plasma concentrations ([1]; human, in vivo): 1.0 to 18.6 ng/mL
Plasma level in individual participants ([1]; human, in vivo): < 0.68 ng/mL
Concentration range ([1]; human, in vivo, 0 h): 1.4 to 8.6 ng/mL
Mean concentration ([1]; human, in vivo, 0 h): 3.5 ng/mL
Concentration range ([1]; human, in vivo, 1.5 h): 0.9 to 73.1 ng/mL
Mean concentration ([1]; human, in vivo, 1.5 h): 9.4 ng/mL
concentration at 1.5 h [1, 9]: < 0.68 ng/mL
Molecule: COc1cc(/C=C/C(O)=C/C(=O)/C=C/c2ccc(O)cc2)ccc1O [Demethoxycurcumin, demethoxycurcumin]

Plasma concentrations ([1]; human, in vivo): 1.0 to 18.6 ng/mL
Plasma level in individual participants ([1]; human, in vivo): < 0.74 ng/mL
Concentration range ([1]; human, in vivo, 0 h): 0.8 to 81.2 ng/mL
Mean concentration ([1]; human, in vivo, 0 h): 14.6 ng/mL
Mean concentration ([1]; human, in vivo, 1.5 h): 21.6 ng/mL
Plasma level in individual participants ([1]; human, in vivo, 1.5 h): 20.9 ng/mL
concentration at 1.5 h [1, 8]: 18.6 ng/mL
concentration at 1.5 h [1, 9]: 16.4 ng/mL
Molecule: COc1cc(CCC(=O)CC(=O)CCc2ccc(O)c(OC)c2)ccc1O [Tetrahydrocurcumin, tetrahydrocurcumin]
